Paper PMC5601486, “Identification of 4-phenylquinolin-2(1H)-one as a specific allosteric inhibitor of Akt” (Scientific Reports, 2017)

Legend:
Test in all cases: KINOMEscan
Conditions in all cases: 50000 nM
[1] = test system: CDKL1
Experimental: KINOMEscan™ selectivity screen
(§1) Briefly, Kinase-tagged T7 phage strains were grown in parallel in an E. coli host derived from the BL21 strain. E. coli were grown to log-phase and infected with T7 phage from a frozen stock and incubated with shaking at 32°C until lysis (90-150 minutes). The kinases were produced in HEK-293 cells and subsequently tagged with DNA for qPCR detection. Streptavidin-coated magnetic beads were treated with biotinylated small molecule ligands to generate affinity resins for kinase
(§2) inhibitor or DMSO control was performed in polypropylene 384-well plates for 1 hr at room temperature. After wash with PBS buffer containing 0.05% Tween 20, the beads were incubated in elution buffer (PBS containing 0.05 % Tween 20 and 0.5 μM non-biotinylated affinity ligand) for 30 minutes at room temperature. The kinase concentration in the eluates was measured by qPCR.

[2] = test system: T1, PKNB(M.tuberculosis); format: binding
T1 construct: purchased DiscoveRx KINOMEscan

[3] = test system: RET(V804L)
Experimental: KINOMEscan™ selectivity screen
(§3) The assay was perfor med at DiscoveRx Corporation according the methods published previously5. Briefly, Kinase-tagged T7 phage strains were grown in parallel in an E. coli host derived from the BL21 strain. E. coli were grown to log-phase and infected with T7 phage from a frozen stock and incubated with shaking at 32°C until lysis (90-150 minutes). The kinases were produced in HEK-293 cells and subsequently tagged with DNA for qPCR detection. Streptavidin-coated magnetic beads were treated with biotinylated small molecule ligands to generate affinity resins for kinase
as §2

[4] = test system: ABL1(F317I)-phosphorylated
Experimental: KINOMEscan™ selectivity screen
as §3, §2

[5] = test system: KIT(D816H)
Experimental: as §1, §2

[6] = test system: CSK
Experimental: KINOMEscan™ selectivity screen
as §3, §2

[7] = test system: PIK3CG
Experimental: KINOMEscan™ selectivity screen
as §1, §2

[8] = test system: FLT4
Experimental: KINOMEscan™ selectivity screen
as §3, §2

Question: How did the “Percent Control” value [1] turn out when Oc1cc(-c2ccccc2)c2ccccc2n1 [G7, 4-phenylquinolin-2(1H)-one] was run?
Answer: The value was 100%.

Question: What about the “Percent Control” value [2] of the same molecule?
Answer: The value was 43%.

Question: What about the “Percent Control” value [3] of the same molecule?
Answer: Its value is 83%.

Question: And the “Percent Control” value [4]?
Answer: Its value is 72%.

Question: What about the “Percent Control” value [5] of the same molecule?
Answer: The value was 84%.

Question: And the “Percent Control” value [6]?
Answer: Its value is 76%.

Question: What about the “Percent Control” value [7] of the same molecule?
Answer: Its value is 94%.

Question: And the “Percent Control” value [8]?
Answer: Its value is 72%.
